For this test, the system named is PMA induced ear oedema. In words: Phorbol 12-myristate 13-acetate induced ear oedema in CD1 mice. The format is in vivo. On the procedure: Male CD1 mice (Iffa Credo, France) weighing 30-40 g were randomly grouped (n=6 in test group of which the untreated ear served as negative control; 6 in positive control group which also served as their own negative control group). Test compounds, as well as vehicle (Trans-phase Delivery System, containing benzyl alcohol 10%, acetone 40% and isopropanol 50%) (all from Kemika, Croatia), were administered topically to the internal surface of the left ear thirty minutes prior to administration of phorbol 12-myristate 13-acetate (PMA) (Sigma, USA). Test compounds were administered at a dose of 100, 250 or 500 μg/15 μL/ear. Thirty minutes later, 0.01% PMA solution in acetone was applied topically to the inner surface of the left ear of each animal in a volume of 12 μL/ear. During the treatment and challenge (stimulation), animals were anaesthetized with anaesthesia by inhalation. Six hours following challenge, animals were euthanized by intraperitoneal thiopental injection (PLIVA, Croatia). For assessing the auricular oedema, 8 mm discs were cut out of left and right auricular pinna and weighed. The degree of oedema was calculated by subtracting the weight of 8 mm disc of the untreated ear from that of the treated contralateral ear. The inhibition of oedema in the treated animals, presented in the Table 8, is expressed as percentage compared to control mice (0%).

For the compound `CCC1OC(=O)C(C)C(OC2CC(C)(OC)C(OC(=O)CCN(CC)CC)C(C)O2)C(C)C(OC2OC(C)CC(N(C)C)C2O)C(C)(OC)CC(C)C(=O)NC(C)C(O)C1(C)O` (stereo not drawn) [Example 8, 4″-O-(3-Diethylamino-propionyl)-6-O-methyl-9a-aza-9a-homoerythromycin A], the “Oedema (% inhibition)” value was 54% (100 μg/ear topical), 74% (250 μg/ear topical) and 94% (500 μg/ear topical).
For `CC[C@H]1OC(=O)[C@H](C)[C@@H](O[C@H]2C[C@@](C)(OC)[C@@H](O)[C@H](C)O2)[C@H](C)[C@@H](O[C@@H]2O[C@H](C)C[C@H](N(C)C)[C@H]2O)[C@](C)(O)C[C@@H](C)CN(C)[C@H](C)[C@@H](O)[C@]1(C)O` [azithromycin, reference compound], in that order: 0%, 83% and 90%.

(Values after patent publication US8080529B2, “Macrolides with anti-inflammatory activity” (Glaxo Group Limited, priority 2005, dated 2011).)
